Where two headings read alike, the source gives them in different places.
Tests used:
[1] = type: in vitro ADME; settings: human liver microsomes, 10 μM
[2] = type: in vitro ADME; settings: mouse liver microsomes, 10 μM
hERG = hERG (Homo sapiens, UniProt Q12809); test: in vitro
[3] = test system: SW620 human colon cancer cell; settings: read-out: SW620 GI50; cited from earlier work
[4] = test system: histone H-3 phosphorylation at S10; test: PK/PD study, tumor biomarker; type: in vivo, mouse; settings: 50 and 100 mg/kg po b.i.d. 4 days, 2 h after the final dose
Caco-2 assay = type: in vitro ADME
In vivo rat PK = settings: female, Sprague-Dawley, plasma, iv, 5 mg/kg
[5] = test system: MV4–11 human FLT3-ITD positive AML tumor xenografts; settings: for days on which individual mice were culled (tumor volume increased by over 500%): control culled day 18
[6] = test system: Stat5 phosphorylation at Y694; test: PK/PD study, tumor biomarker; type: in vivo, mouse; settings: 50 and 100 mg/kg po b.i.d. 4 days, 2 h after the final dose
pKa measurement = type: physicochemical

Chain of hERG (Q12809 whole entry): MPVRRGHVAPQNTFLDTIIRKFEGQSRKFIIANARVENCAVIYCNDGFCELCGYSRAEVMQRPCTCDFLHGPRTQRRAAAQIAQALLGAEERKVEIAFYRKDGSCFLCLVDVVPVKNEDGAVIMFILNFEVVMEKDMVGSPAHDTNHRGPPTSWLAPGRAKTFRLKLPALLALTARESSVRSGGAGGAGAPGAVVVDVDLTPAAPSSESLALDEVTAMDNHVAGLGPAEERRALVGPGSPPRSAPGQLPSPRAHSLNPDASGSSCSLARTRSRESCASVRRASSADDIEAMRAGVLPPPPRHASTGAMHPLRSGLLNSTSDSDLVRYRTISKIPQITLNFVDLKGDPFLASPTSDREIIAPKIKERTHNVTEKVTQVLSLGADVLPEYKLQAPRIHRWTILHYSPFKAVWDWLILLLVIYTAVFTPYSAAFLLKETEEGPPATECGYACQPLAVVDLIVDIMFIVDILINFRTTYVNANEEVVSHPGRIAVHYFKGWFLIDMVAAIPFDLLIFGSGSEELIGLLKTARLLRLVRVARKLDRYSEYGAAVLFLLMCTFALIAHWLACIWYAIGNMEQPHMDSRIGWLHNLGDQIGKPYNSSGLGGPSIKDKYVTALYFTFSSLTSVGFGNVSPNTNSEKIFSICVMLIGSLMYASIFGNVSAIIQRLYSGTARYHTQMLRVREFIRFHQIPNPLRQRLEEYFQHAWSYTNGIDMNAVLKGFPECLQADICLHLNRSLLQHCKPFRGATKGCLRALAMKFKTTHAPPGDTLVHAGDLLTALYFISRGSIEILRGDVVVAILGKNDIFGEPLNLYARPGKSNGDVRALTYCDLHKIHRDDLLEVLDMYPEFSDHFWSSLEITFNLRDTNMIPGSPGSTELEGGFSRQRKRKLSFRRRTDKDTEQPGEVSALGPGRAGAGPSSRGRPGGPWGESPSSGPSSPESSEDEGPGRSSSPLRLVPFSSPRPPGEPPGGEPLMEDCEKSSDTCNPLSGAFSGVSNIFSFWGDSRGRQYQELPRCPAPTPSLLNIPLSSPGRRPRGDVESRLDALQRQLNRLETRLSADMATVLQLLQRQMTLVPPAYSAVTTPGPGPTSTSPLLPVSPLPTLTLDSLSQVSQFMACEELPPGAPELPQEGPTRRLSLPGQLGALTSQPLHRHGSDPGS

Cc1cc(CN2CCN(c3c(Cl)cnc4nc(-c5cnn(C)c5)[nH]c34)CC2)no1 [Compound 21i, 3-((4-(6-Chloro-2-(1-methyl-1H-pyrazol-4-yl)-3H-imidazo[4,5-b]pyridin-7-yl)piperazin-1-yl)methyl)-5-methylisoxazole]
HLM: Percentage of parent compound metabolized after a 30 min incubation [1]: 10%
MLM: Percentage of parent compound metabolized after a 30 min incubation [2]: 20%
inhibition at 10 µM (hERG): 67%

Cc1cc(CN2CCN(c3c(Br)cnc4nc(-c5ccc(N6CCN(C)CC6)cc5)[nH]c34)CC2)no1 [Compound 6]
GI50 [3]: 0.3 µM

Cc1nn(C)cc1-c1nc2c(N3CCN(Cc4ccc(Cl)cc4)CC3)c(Cl)cnc2[nH]1 [Compound 27e, 6-Chloro-7-(4-(4-chlorobenzyl)piperazin-1-yl)-2-(1,3-dimethyl-1H-pyrazol-4-yl)-3H-imidazo[4,5-b]pyridine]
inhibition of histone H-3 phosphorylation in tumor [4]: clear inhibition
Caco-2 efflux (Caco-2 assay): no efflux
Vd (In vivo rat PK): 0.369 L
days on which individual mice were culled (tumor volume increased by over 500%) ([5]; 50 mg/kg): days 28 and 31
tumors when therapy discontinued ([5]; 100 mg/kg po b.i.d., after 11 days): undetectable
days on which individual mice were culled (tumor volume increased by over 500%) ([5]; 100 mg/kg): days 46 and 56
toxicity as defined by body weight loss and general condition ([5]; 50 and 100 mg/kg po): no observed toxicity
inhibition of Stat5 phosphorylation in tumor [6]: clear inhibition

Cc1cc(CN2CCN(c3c(Br)cnc4nc(-c5cncn5C)[nH]c34)CC2)no1 [Compound 21a, 3-((4-(6-Bromo-2-(1-methyl-1H-imidazol-5-yl)-3H-imidazo[4,5-b]pyridin-7-yl)piperazin-1-yl)methyl)-5-methylisoxazole]
inhibition at 10 µM (hERG): 94%

COc1ccc(-c2nc3c(N4CCN(Cc5cc(C)on5)CC4)c(Br)cnc3[nH]2)cc1 [6-bromo-2-(4-methoxyphenyl)-7-[4-(5-methyl-isoxazol-3-ylmethyl)-piperazin-1-yl]-3H-imidazo[4,5-b]pyridine]
pKa (pKa measurement; acidic pKa of the imidazopyridine N3 proton): 9.51
pKa (pKa measurement; pKa of the piperazine nitrogen bearing the 5-methylisoxazol-3-yl substituent): 5.39

Reference: article PMC3483018 (Journal of Medicinal Chemistry, 2012)
